# Like-named read-outs stand apart in the source and are kept apart here.
# What was measured:
# Assay type in all cases: cell-based
# [1] = tested on: Streptococcus pyogenes 1079; assay: MIC, microtiter broth dilution (NCCLS M100-S14), S. pyogenes 1079 (ermB)
# Procedure, shortened: (§1)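 Where available, resistant strains were tested alongside the susceptible parent they derive from. The MIC, determined by tray-based broth dilution and NCCLS M100-S14 interpretation, served as the comparison value.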
# [2] = tested on: Streptococcus pneumoniae 1095; conditions: microtiter broth dilution
# Procedure, shortened: as §1
# [3] = tested on: Streptococcus pneumoniae 1175; conditions: microtiter broth dilution
# Procedure, shortened: as §1
# [4] = tested on: Streptococcus pneumoniae 1016; assay: MIC, microtiter broth dilution (NCCLS M100-S14), S. pneumoniae 1016 (susceptible)
# Procedure, shortened: as §1
# [5] = tested on: Haemophilus influenzae 1218; assay: MIC, microtiter broth dilution (NCCLS M100-S14), H. influenzae 1218 (susceptible)
# Procedure, shortened: as §1
# [6] = S. pneumoniae 1016 (susceptible)
# [7] = H. influenzae 1218 (susceptible)
Structure (SMILES),MIC S. pyogenes 1079 ([1]; Streptococcus pyogenes 1079),MIC S. pneumo. 1095 ([2]; Streptococcus pneumoniae 1095),MIC S. pneumo. 1175 ([3]; Streptococcus pneumoniae 1175),MIC S. pneumo. 1016 ([4]; Streptococcus pneumoniae 1016),MIC H. influenzae 1218 ([5]; Haemophilus influenzae 1218),MIC S. pyogenes 1079 ([1]; S. pyogenes 1079 (ermB)),MIC S. pneumo. 1095 ([2]; S. pneumoniae 1095 (ermB)),MIC S. pneumo. 1175 ([3]; S. pneumoniae 1175 (mefA)),"MIC S. pneumo. 1016 [4, 6]","MIC H. influenzae 1218 [5, 7]"
"CCC1OC(=O)C(C)C(=O)C(C)C(OC2OC(C)CC(N(C)C)C2O)C(C)(OC)CC(C)C(=O)C(C)C2N(C3CN(S(=O)(=O)c4ccc(Oc5ccccn5)cc4)C3)C(=O)OC12C (stereo not shown) [Example 3.34, 4-(pyridin-2-yloxy)benzenesulfonyl]",64 µg/mL,1 µg/mL,0.12 µg/mL,<0.06 µg/mL,16 µg/mL,–,–,–,–,–
CCC1OC(=O)C(C)C(=O)C(C)C(OC2OC(C)CC(N(C)C)C2O)C(C)(OC)CC(C)C(=O)C(C)C2N(C3CN(C(=O)Nc4ccc5ccccc5c4)C3)C(=O)OC12C (stereo not shown) [Example 2.04],32 µg/mL,8 µg/mL,<0.06 µg/mL,<0.06 µg/mL,8 µg/mL,–,–,–,–,–
"CCC1OC(=O)C(C)C(=O)C(C)C(OC2OC(C)CC(N(C)C)C2O)C(C)(OC)CC(C)C(=O)C(C)C2N(C3CN(C(C)c4ccnc5cccnc45)C3)C(=O)OC12C (stereo not drawn) [Example 1.38, 3-descladinosyl-11,12-dideoxy-6-O-methyl-3-oxo-12,11-(oxycarbonyl-(1-(1S-(1,5-naphthyridin-4-yl)-ethyl)-azetidin-3-yl)-imino)erythromycin A]",4 µg/mL,<0.06 µg/mL,0.25 µg/mL,<0.06 µg/mL,1 µg/mL,–,–,–,–,–
"CCC1OC(=O)C(C)C(=O)C(C)C(OC2OC(C)CC(N(C)C)C2O)C(C)(OC)CC(C)C(=O)C(C)C2N(C3CN(Cc4ccnc(-c5nc(C)no5)c4)C3)C(=O)OC12C (stereo not shown) [Example 1.46, (2-[3-methyl-(1,2,4)oxadiazol-5-yl]pyridin-4-yl)methyl]",>64.00 µg/mL,<0.06 µg/mL,0.25 µg/mL,<0.06 µg/mL,8 µg/mL,–,–,–,–,–
CC[C@H]1OC(=O)[C@H](C)C(=O)[C@H](C)[C@@H](O[C@@H]2O[C@H](C)C[C@H](N(C)C)[C@H]2O)[C@](C)(OC)C[C@@H](C)C(=O)[C@H](C)[C@H]2N(CC3(C)CN(Cc4ccc5[nH]ccc5c4)C3)C(=O)O[C@]12C [6.10],–,–,–,–,–,>64.00 µg/mL,0.25 µg/mL,0.12 µg/mL,<0.06 µg/mL,1 µg/mL
"CC[C@H]1OC(=O)[C@H](C)[C@@H](OC(=O)N2CCCC2)[C@H](C)[C@@H](O[C@@H]2O[C@H](C)C[C@H](N(C)C)[C@H]2O)[C@](C)(OC)C[C@@H](C)C(=O)[C@H](C)[C@H]2N(CC3CN(C(=O)c4ccnc5ccccc45)C3)C(=O)O[C@]12C [Example 5.01, 2-R^2: quinoline-4-carboxyl; R^#: pyrrolidin-1-yl]",64 µg/mL,0.5 µg/mL,<0.06 µg/mL,<0.06 µg/mL,2 µg/mL,–,–,–,–,–
"CCC1OC(=O)C(C)C(=O)C(C)C(OC2OC(C)CC(N(C)C)C2O)C(C)(OC)CC(C)C(=O)C(C)C2N(C3CN(S(=O)(=O)c4ccc(OC(F)F)c5ncccc45)C3)C(=O)OC12C (stereo not shown) [Example 3.113, 3-descladinosyl-11,12-dideoxy-6-O-methyl-3-oxo-12,11-(oxycarbonyl-(1-(8-(difluoromethoxy)quinoline-5-sulfonyl)-azetidin-3-yl)-imino)-erythromycin A]",0.5 µg/mL,<0.063 µg/mL,<0.063 µg/mL,<0.063 µg/mL,1 µg/mL,–,–,–,–,–
"CC[C@H]1OC(=O)[C@H](C)C(=O)[C@H](C)[C@@H](O[C@@H]2O[C@H](C)C[C@H](N(C)C)[C@H]2O)[C@](C)(OC)C[C@@H](C)C(=O)[C@H](C)[C@H]2N(C3CN([C@H](C)c4ccnc5ncccc45)C3)C(=O)O[C@]12C [Example 1.25, 3-descladinosyl-11,12-dideoxy-6-O-methyl-3-oxo-12,11-(oxycarbonyl-(1-(1R-(1,8-naphthyridin4-yl)-ethyl)-azetidin-3-yl)-imino)-erythromycin A]",1 µg/mL,<0.06 µg/mL,0.25 µg/mL,<0.06 µg/mL,0.5 µg/mL,–,–,–,–,–
CC[C@H]1OC(=O)[C@H](C)C(=O)[C@H](C)[C@@H](O[C@@H]2O[C@H](C)C[C@H](N(C)C)[C@H]2O)[C@](C)(OC)C[C@@H](C)C(=O)[C@H](C)[C@H]2N(CC3(O)CN(C(=O)c4ccc5ccccc5n4)C3)C(=O)O[C@]12C [7.22],–,–,–,–,–,>64.00 µg/mL,<0.06 µg/mL,0.12 µg/mL,<0.06 µg/mL,1 µg/mL
CCC1OC(=O)C(C)C(=O)C(C)C(OC2OC(C)CC(N(C)C)C2O)C(C)(OC)CC(C)C(=O)C(C)C2N(CC3CN(Cc4cccc5nccnc45)C3)C(=O)OC12C (stereo not shown) [4.17],64 µg/mL,0.5 µg/mL,0.12 µg/mL,<0.06 µg/mL,0.25 µg/mL,–,–,–,–,–
"CCC1OC(=O)C(C)C(=O)C(C)C(OC2OC(C)CC(N(C)C)C2O)C(C)(OC)CC(C)C(=O)C(C)C2N(C3CN(Cc4c(C)cnc5ccccc45)C3)C(=O)OC12C (stereo not shown) [Example 1.98, 3-descladinosyl-11,12-dideoxy-6-O-methyl-3-oxo-12,11-(oxycarbonyl-(1-(3-methylquinoline-4-methyl)-azetidin-3-yl)-imino)-erythromycin A]",0.25 µg/mL,<0.063 µg/mL,<0.063 µg/mL,<0.063 µg/mL,2 µg/mL,–,–,–,–,–
CCC1OC(=O)C(C)C(=O)C(C)C(OC2OC(C)CC(N(C)C)C2O)C(C)(OC)CC(C)C(=O)C(C)C2N(C3CN(S(=O)(=O)c4cccc5nonc45)C3)C(=O)OC12C (stereo not shown) [Example 3.05],16 µg/mL,2 µg/mL,<0.06 µg/mL,<0.06 µg/mL,0.25 µg/mL,–,–,–,–,–
CCC1OC(=O)C(C)C(=O)C(C)C(OC2OC(C)CC(N(C)C)C2O)C(C)(OC)CC(C)C(=O)C(C)C2N(CC3CCCN3C(=O)c3cc4ncccc4[nH]3)C(=O)OC12C (stereo not shown) [10.42],–,–,–,–,–,64 µg/mL,<0.06 µg/mL,<0.06 µg/mL,<0.06 µg/mL,0.5 µg/mL
CCC1OC(=O)C(C)C(=O)C(C)C(OC2OC(C)CC(N(C)C)C2O)C(C)(OC)CC(C)C(=O)C(C)C2N(CC3C4CN(C(=O)c5cccc(C#N)c5)CC43)C(=O)OC12C (stereo not shown) [16.05],–,–,–,–,–,3.12 µg/mL,1.56 µg/mL,1.56 µg/mL,0.01 µg/mL,0.5 µg/mL
"CCC1OC(=O)C(C)C(=O)C(C)C(OC2OC(C)CC(N(C)C)C2O)C(C)(OC)CC(C)C(=O)C(C)C2N(C3CN(S(=O)(=O)c4ccc(OC)nc4)C3)C(=O)OC12C (stereo not shown) [Example 3.38, 6-methoxypyridine-3-sulfonyl]",64 µg/mL,1 µg/mL,<0.06 µg/mL,<0.06 µg/mL,0.5 µg/mL,–,–,–,–,–
CCC1OC(=O)C(C)C(=O)C(C)C(OC2OC(C)CC(N(C)C)C2O)C(C)(OC)CC(C)C(=O)C(C)C2N(CC3CCCN3Cc3ccno3)C(=O)OC12C (stereo not shown) [10.01],–,–,–,–,–,>64.00 µg/mL,0.25 µg/mL,0.5 µg/mL,<0.06 µg/mL,1 µg/mL
CCC1OC(=O)C(C)C(=O)C(C)C(OC2OC(C)CC(N(C)C)C2O)C(C)(OC)CC(C)C(=O)C(C)C2N(CC3CCCN3C(=O)c3cc4ccncc4[nH]3)C(=O)OC12C (stereo not shown) [10.34],–,–,–,–,–,>64.00 µg/mL,0.12 µg/mL,0.12 µg/mL,<0.06 µg/mL,2 µg/mL
CC[C@H]1OC(=O)[C@H](C)C(=O)[C@H](C)[C@@H](O[C@@H]2O[C@H](C)C[C@H](N(C)C)[C@H]2O)[C@](C)(OC)C[C@@H](C)C(=O)[C@H](C)[C@H]2N(CC3(O)CN(C(=O)c4cncc5ccccc45)C3)C(=O)O[C@]12C [7.23],–,–,–,–,–,>64.00 µg/mL,0.5 µg/mL,0.5 µg/mL,<0.06 µg/mL,2 µg/mL
"CCC(c1ccnc2ccccc12)N1CC(N2C(=O)OC3(C)C(CC)OC(=O)C(C)C(=O)C(C)C(OC4OC(C)CC(N(C)C)C4O)C(C)(OC)CC(C)C(=O)C(C)C23)C1 (mixture of isomers) [Example 1.61, 3-descladinosyl-11,12-dideoxy-6-O-methyl-3-oxo-12,11-(oxycarbonyl-(1-(1-(quinolin-4-yl)-propyl)-azetidin-3-yl)-imino)-erythromycin A]",8 µg/mL,<0.06 µg/mL,0.25 µg/mL,<0.06 µg/mL,4 µg/mL,–,–,–,–,–
CCC1OC(=O)C(C)C(=O)C(C)C(OC2OC(C)CC(N(C)C)C2O)C(C)(OC)CC(C)C(=O)C(C)C2N(CC3CCN(Cc4c[nH]nn4)CC3)C(=O)OC12C (stereo not shown) [15.10],–,–,–,–,–,>64.00 µg/mL,>64.00 µg/mL,8 µg/mL,<0.06 µg/mL,4 µg/mL
